# Where “and” joins values, the source holds several entries; their conditions need not be identical. Equal values may be shown once.
# Columns and labels:
# geriatric beagles = test: Experiment B: recovery from general anesthesia in beagle dogs, 0.5 mg/kg compound of Formula Ia; assay type: in vivo
# Experimental: (§1) The patients utilized in the study were maintained in standard facilities with appropriate heating and ventilation. All dogs were placed under general anesthesia. The duration of anesthesia, time to extubation and time to sternal recumbency were recorded. Also noted were behaviors indicative of dysphoria such as vocalization and purposeless movement. A visual analog scale (“VAS”) was used to score the “quality” of the entire recovery period.
# (§2) As used herein, the term “duration of anesthesia” is the time in minutes elapsed between intubation and cessation of anesthetic gases.
# (§3) As used herein, the term “time to extubation” is the time in minutes elapsed between cessation of anesthetic gases and the need for removal of the endotracheal tube due to spontaneous swallowing.
# (§4) As used herein, the term “time to Sternal Recumbency” is the time in minutes elapsed between cessation of anesthetic gases and the time the dog could physically place and maintain itself in sternal recumbency.
# (§5) Evaluation of Recovery Period. A visual analog scale (“VAS”) was used to score the “quality” of the recovery period (0=smooth recovery, 10=rough recovery). Factors considered included, but were not limited to, vocalization, purposeless movement as well as the subjective degree of dysphoria experienced by the dog. The study director, who was blinded to treatment assignments, assigned recovery scores.
# (§6) Statistical Analysis. Data from two trials conducted according to the above procedure were combined for analysis purposes. The data in the following Tables and Figures are mean±standard deviation. Duration of anesthesia, time to extubation and time to sternal recumbency data were analyzed using a paired t-test for means in Excel. Recovery VAS data were analyzed using SAS Statistical Software.
# Fifteen experimental geriatric beagles, weighing 9-16 kilograms and undergoing anesthesia for dental prophylaxis, were used in this study. All dogs were fasted overnight prior to anesthesia. Experimental dogs were subcutaneously administered 0.5 mg/kg compound of Formula Ia at the time of pre-anesthetic medication. Control dogs received no treatment in addition to routine pre-anesthesia medications. The duration of anesthesia, time to extubation and time to sternal recumbency were recorded.
# (§7) Preparation of 0.5 mg/kg compound of Formula Ia dose: Formulations were prepared by dissolving the compound of Formula Ia (10 mg/mL) and SBE-CD (10%) in distilled water to form a solution. The solution was sonicated to facilitate complete dissolution and filtered through a 0.22 μm Millipore syringe top filter prior to injection.
# Administration of Dose: Solutions of compound of Formula Ia (0.5 mg/kg) were administered by subcutaneous injection.
# Anesthetic Protocol: General anesthesia was induced and maintained using the following protocol:
# (1) Preanesthetic administration: the Experimental patients were treated with subcutaneous administration of a dose of compound of Formula Ia, as prepared above. Both experimental and control patients were administered glycopyrrolate (0.01 mg/kg SC), butorphanol (0.1 mg/kg SC) and penicillin (30,000 units/kg SC)
# (2) During the induction period, the patients were administered intravenous methohexital (8 mg/kg IV).
# (3) The patients were then maintained with inhalant isoflurane at concentrations ranging from 0.5 to 3%.
# The patients were monitored continuously during the anesthetic and recovery periods.
# mature mongrel dogs = test: Experiment A: anesthetic recovery in dogs, 1.0 mg/kg compound of Formula Ia vs saline control; assay type: in vivo
# Experimental: as §1, §2, §3, §4, §5, §6
# Experimental mature mongrel dogs, both male and female, weighing about 16-26 kilograms, were subcutaneously administered 1.0 mg/kg compound of Formula Ia one hour prior to preanesthetic administration. Control dogs were subcutaneously administered an equivalent volume of saline solution one hour prior to preanesthetic administration. The duration of anesthesia, time to extubation and time to sternal recumbency were recorded. The patients were monitored continuously during the anesthetic and recovery periods.
# as §7, with “1.0” for “0.5”
# Administration of Dose: Solutions of compound of Formula Ia (1.0 mg/kg) or saline placebo (0.1 mL/kg) were administered by subcutaneous injection (“SC”).
# Anesthetic Protocol: General anesthesia was induced using the following protocol: (1) One hour prior to preanesthetic administration, the patients were treated with subcutaneous administration of either a dose of compound of Formula Ia, as prepared above, or the saline control (0.1 mL/kg).
# (2) Thirty (30) minutes prior to induction (preanesthetic), the patients were administered glycopyrrolate (0.01 mg/kg SC) and butorphanol (0.1 mg/kg SC).
# (3) During the induction period, the patients were administered intravenous methohexital (8 mg/kg IV).
# (4) The patients were then maintained with inhaled isoflurane at concentrations ranging from 0.5 to 3%.
# [1] = 0.5 mg/kg SC at time of pre-anesthetic medication, beagle dogs
# [2] = 1 mg/kg SC one hour prior to preanesthetic, individual dogs
# [3] = 1 mg/kg SC, Mean ± SD of 12 dogs
smiles,measurement,setting,value
"COc1ccc(C(C)(C)C)cc1CN[C@H]1C2CCN(CC2)[C@H]1C(c1ccccc1)c1ccccc1 [Compound of Formula Ia, (2S,3S)-2-benzhydryl-N-(5-tert-butyl-2-methoxybenzyl)quinuclidin-3-amine]","Time to extubation, experimental vs control group",geriatric beagles; 0.5 mg/kg SC,no statistical difference
same,"Time to sternal recumbency, experimental vs control group",geriatric beagles; 0.5 mg/kg SC,no statistical difference
same,"Visual analog score for smoothness of recovery period, experimental vs control group",geriatric beagles; 0.5 mg/kg SC,no statistical difference
same,Time to Extubation Mean ± SD,geriatric beagles; [1],5.00 ± 4.47 min
same,Time to Sternal Recumbency Mean ± SD,geriatric beagles; [1],10.86 ± 10.67 min
same,Subjective appearance during the recovery period vs control dogs,geriatric beagles; 0.5 mg/kg SC during the preoperative period,tended to look less anxious
same,Recovery Score Mean ± SD,"geriatric beagles; 0.5 mg/kg SC, VAS 0=smooth, 10=rough, beagle dogs",3.46 ± 1.54 cm
same,Treated dogs that received visual analog scores of less than 5 cm,"geriatric beagles; 0.5 mg/kg SC, control dogs 4 out of 8",7 out of 7
same,Time to extubation compared with saline group,mature mongrel dogs; 1 mg/kg SC,similar
same,Time to sternal recumbency compared with saline group,mature mongrel dogs; 1 mg/kg SC,similar
same,Time to Extubation,mature mongrel dogs; [2],2 min (4×) and 1 min (2×) and 3 min and 5 min (3×) and 4 min (2×)
same,Time to Sternal Recumbency,mature mongrel dogs; [2],4 min and 3 min (4×) and 6 min (2×) and 1 min and 11 min and 9 min (2×) and 7 min
same,Time to Extubation,mature mongrel dogs; [3],3 ± 2 min
same,Time to Sternal Recumbency,mature mongrel dogs; [3],5 ± 3 min
same,Recovery Quality,"mature mongrel dogs; 1 mg/kg SC, VAS 0=smooth recovery, 10=rough recovery, individual dogs",7.1 cm and 1.4 cm and 2.1 cm and 0.7 cm and 0.9 cm and 3.9 cm and 0.2 cm and 1.1 cm and 1.8 cm and 1.9 cm and 4.7 cm and 2.4 cm
same,Recovery Quality,"mature mongrel dogs; 1 mg/kg SC, VAS 0=smooth, 10=rough, Mean ± SD of 12 dogs, p=0.02 vs saline",2.3 ± 2 cm
same,Recovery scores compared with saline,"mature mongrel dogs; 1 mg/kg SC, p=0.02",significantly lower recovery scores
same,Recovery VAS scores lower than saline controls,"mature mongrel dogs; 1 mg/kg SC, vs saline controls",43.9%

# Reference: US20070155782A1, “Nk-1 receptor antagonists anesthesia recovery” (priority 2004, published 2007)
